Five molecules from patent US12643884B2, “1-(2-(4-cyclopropyl-1H-1,2,3-triazol-1-yl)acetyl)-4-hydroxypyrrolidine-2-carboxa|mide derivatives as VHL inhibitors for the treatment of anemia” (Genentech, Inc., priority 2020, dated 2026) can be followed below.

Molecules are shown by their SMILES.

The target in one series is T1, VHL Elongin B/C complex (Homo sapiens, UniProt P40337).
T1 construct: amino acids E55-D213 of human VHL; His6 (N); TEV-protease cleavage site (N); made in house; host or cells: E. coli
T1 sequence (P40337 55-213): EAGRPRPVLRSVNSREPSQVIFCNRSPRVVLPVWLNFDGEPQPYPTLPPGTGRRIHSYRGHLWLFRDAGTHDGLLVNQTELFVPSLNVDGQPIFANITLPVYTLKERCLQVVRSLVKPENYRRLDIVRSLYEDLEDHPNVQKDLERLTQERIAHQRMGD
T1 sequence (Q15370 whole entry partner, the tested form may be a part): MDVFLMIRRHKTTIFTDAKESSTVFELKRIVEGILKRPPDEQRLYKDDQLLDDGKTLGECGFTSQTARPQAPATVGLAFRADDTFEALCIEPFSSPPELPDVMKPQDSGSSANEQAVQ
T1 sequence (Q15369 17-112 partner limits assumed): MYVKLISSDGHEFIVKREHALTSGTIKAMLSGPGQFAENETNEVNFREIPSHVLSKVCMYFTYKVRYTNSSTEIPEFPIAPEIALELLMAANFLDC
The series can be described thus: Fluorescence Polarization (FP) VHL Binding Assay. As to conditions: fluorescence polarization tracer competition; geometric mean where more than one measurement. The protocol:
The binding of test compounds to the VHL Elongin B/C complex is measured using a fluorescence polarization tracer competition assay. The VHL/Elongin B/C protein complex used in the assay is generated as follows. The coding region for amino acids E55-D213 of human VHL with N-terminal His6 tag with a TEV-protease cleavage site is co-expressed with Elongin B (residues M1-Q118) and Elongin C (Residues M17-C112) in E. coli. The VHL/Elongin B/C complex is purified using an affinity nickel column, anion exchange HiTrap QP HP column chromatography, and gel filtration using a Superdex 75 26/60 column. […] A VHL fluorescence polarization probe consists of a VHL ligand coupled to carboxytetramethylrhodamine (TAMRA); (2S,4R)—N-(2-(2-(3′,6′-bis(dimethylamino)-3-oxo-3H-spiro[isobenzofuran-1,9′-xanthene]-5-carboxamido)ethoxy)-4-(4-methylthiazol-5-yl)benzyl)-4-hydroxy-1-((R)-3-methyl-2-(3-methylisoxazol-5-yl)butanoyl)pyrrolidine-2-carboxamide. […] A “pre-assay” fluorescence measurement is made using an Infinite® M1000 (Tecan) plate reader (Excitation 530 nm, Emission 574 nm, Bandwidth 10 nm). […] “Post-assay” fluorescence polarization measurements are made as described for the “pre-assay” fluorescence measurement. […] The data are analyzed using Genedata Screener software and normalized to the “no VHL control” and “VHL control” (without compound). […]

For series [1], the target named is T2, NanoLuc VHL fusion protein stably expressed in HEK 293 cells (Homo sapiens, UniProt P40337).
T2 construct: expressed in transfected cells
T2 sequence (P40337 whole entry, the tested form may be a part): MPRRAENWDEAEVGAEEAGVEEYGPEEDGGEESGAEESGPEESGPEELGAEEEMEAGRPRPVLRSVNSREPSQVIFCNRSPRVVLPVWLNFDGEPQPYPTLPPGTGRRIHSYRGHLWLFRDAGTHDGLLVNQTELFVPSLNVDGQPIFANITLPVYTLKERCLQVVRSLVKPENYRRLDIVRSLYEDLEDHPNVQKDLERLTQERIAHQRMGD
T2 sequence (Q15370 whole entry partner, the tested form may be a part): as the sequence (Q15370 whole entry partner, the tested form may be a part) above
T2 sequence (Q15369 whole entry partner, the tested form may be a part): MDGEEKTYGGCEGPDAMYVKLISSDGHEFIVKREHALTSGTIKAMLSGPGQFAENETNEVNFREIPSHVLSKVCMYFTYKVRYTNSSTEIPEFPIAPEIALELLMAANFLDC
Description: VHL HEK-293 BRET Assay (VHL NanoBRET Target Engagement Assay). The format is cell-based. To be noted: for IC50: HEK293 cells, nanoBRET, geometric mean where more than one measurement, read-out: VHL binding in cells (HEK293 nanoBRET); for Ratio cell permeability shift: ratio of nanoBRET in cells to nanoBRET +Digitonin. On the procedure:
The VHL NanoBRET™ Target Engagement Assay analyzes the apparent affinity of test compounds for VHL in cells by competitive displacement of a VHL NanoBRET™ tracer reversibly bound to a NanoLuc® VHL fusion protein stably expressed in the cells.
Test compounds were transferred to the assay plate (384 Well White Non-Binding Corning Assay Plates (Corning-3574)) using an Echo 555 Liquid Handler (Labcyte) in 2.5 nL increments and, as appropriate, intermediate stock concentrations of compounds, in order to prepare a titration series. 50 nL of control compound (10 mM; parental unlabeled VHL antagonist; see structure below) and 50 nL of DMSO (negative control) were dispensed into the appropriate control wells. DMSO was backfilled to a final volume of 50 nL as required. 50 nl per well of 1 mM VHL NanoBRET™ Tracer in DMSO (NanoBRET™ Tracer-PEG2-590 (see structure below)) was transferred into each well using an Echo 555 (ultimately yielding a final concentration of 1 uM). HEK 293 RT VHL-NanoLuc® stable cells were cultured in DMEM High Glucose with Pyruvate, 10% fetal bovine serum, 2 mg/mL of Geneticin Selective Antibiotic (50 mg/ml) and 2 mM HEPES (1 M). Cells were seeded in Opti-MEM (Life Technologies-11058-021), 1.7×10^5 cells/mL, 40 μl per well into the assay plate, centrifuged at 500 rpm for 30 seconds and incubated for 2 hours. Max Signal control wells consisted of DMSO only treated wells. Minimum Signal control wells contained of 10 uM parental unlabeled VHL antagonist (control compound—see structure below). 3× Complete Substrate plus Inhibitor Solution was prepared in Opti-MEM (consists of a 1:166 dilution of NanoBRET™ Nano-Glo® Substrate plus a 1:500 dilution of Extracellular NanoLuc® Inhibitor in Opti-MEM), and 20 ul was dispensed into each well of the 384-well plate and centrifuged at 1000 rpm for 1 minute, then incubated for 2 minutes at room temperature. Background Signal control wells were prepared without tracer for background correction steps.
Plates were read using a PerkinElmer Envision Reader (model 2104-0020) equipped with Luminescence option (Mirror: BRET2 Enh (PE Barcode 659), Emission Filter: Omega 610LP (Barcode 504), 2nd Emission Filter: Umbelliferone 460 (Barcode 207), Measurement height: 6.5 mm, Measurement time: 1 s). The raw BRET ratio values were calculated by dividing the acceptor emission value (610 nm) by the donor emission value (460 nm) for each sample. To correct for background, the BRET ratio in the absence of tracer (average of no-tracer control samples) was subtracted from the BRET ratio of each sample. Raw BRET units were converted to milliBRET units (mBU) by multiplying each raw BRET value by 1,000. The normalized NanoBRET™ signal was calculated relative to the Max Signal control wells (DMSO treated control wells) and the Minimum Signal control wells. Percentage inhibition was calculated relative to the Minimum Signal control and Maximum Signal control wells. IC50 values were derived by four parameter curve fitting using the Robust method.
(In general: BRET reads energy transfer from a luciferase to a nearby fluorophore.)

The target in a further series is T3, VHL (Homo sapiens, UniProt P40337).
T3 construct: expressed in transfected cells
T3 sequence (P40337 whole entry): as the sequence (P40337 whole entry, the tested form may be a part) above
T3 sequence (Q15370 whole entry partner): as the sequence (Q15370 whole entry partner, the tested form may be a part) above
T3 sequence (Q15369 whole entry partner): as the sequence (Q15369 whole entry partner, the tested form may be a part) above
The series can be described thus: VHL nanoBRET (+Digitonin). The format is cell-based.

On to `CC(C)(C)[C@@H](C(=O)N1C[C@H](O)C[C@H]1C(N)=O)n1cc(C2CC2)nn1` [Final product from Example S1, (2S,4R)-1-((S)-2-(4-cyclopropyl-1H-1,2,3-triazol-1-yl)-3,3-dimethylbutanoyl)-4-hydroxypyrrolidine-2-carboxamide], for which the IC50 amounted to 1.17 µM at VHL Elongin B/C complex and 2 µM in series [1]. Also, the “Ratio cell permeability shift” value in series [1] amounted to 1.71. In addition, the midpoint of the response at VHL, the EC50, lay at 2.14 µM.

Turning to `CNC(=O)[C@@H]1C[C@@H](O)CN1C(=O)[C@H](C(C)C)n1cc(-c2ccccc2)nn1` [Final product from Example S34, (2S,4R)-4-hydroxy-N-methyl-1-((S)-3-methyl-2-(4-phenyl-1H-1,2,3-triazol-1-yl)butanoyl)pyrrolidine-2-carboxamide], in series [1], the IC50 came out at 1.38 µM and the “Ratio cell permeability shift” value is on record as 1.09. In addition, on VHL, the midpoint of the response, the EC50, lay at 1.27 µM.

On to `CC(C)(C)[C@@H](C(=O)N1C[C@H](O)C[C@H]1C(=O)NC1(C(F)(F)F)CC1)n1cc(C2CC2)nn1` [Final product from Example S18, (2S, 4R)-1-((S)-2-(4-cyclopropyl-1H-1,2,3-triazol-1-yl)-3,3-dimethylbutanoyl)-4-hydroxy-N-(1-(trifluoromethyl)cyclopropyl)pyrrolidine-2-carboxamide], for which, in series [1], the IC50 turned out to be 4.99 µM and the “Ratio cell permeability shift” value came out at 1. Further, the EC50 – broadly, the midpoint of the concentration-response curve – at VHL worked out at 4.99 µM.

Regarding `CNC(=O)[C@@H]1C[C@@H](O)CN1C(=O)[C@@H](n1ccnn1)C(C)(C)C` [Final product from Example S4, (2S,4R)-1-((S)-3,3-dimethyl-2-(1H-1,2,3-triazol-1-yl)butanoyl)-4-hydroxy-N-methylpyrrolidine-2-carboxamide], in series [1], the IC50 stood at 15.2 µM and the “Ratio cell permeability shift” value is recorded as 1.26. At VHL, this molecule came in with a half-maximal effective concentration (EC50) of 12.1 µM.

Consider `CC(C)[C@@H](C(=O)N1C[C@H](O)C[C@H]1C(=O)N(C)C)n1cc(C2CC2)nn1` [Final product from Example S41, (2S,4R)-1-((S)-2-(4-cyclopropyl-1H-1,2,3-triazol-1-yl)-3-methylbutanoyl)-4-hydroxy-N,N-dimethylpyrrolidine-2-carboxamide], for which, in series [1], the IC50 was 49.9 µM and the “Ratio cell permeability shift” value worked out at 0.69. In addition, the response at VHL was half-maximal at 72.3 µM (EC50).
